The values below are quoted from earlier work in US9700504B2, “Composition and method for an intradermal hair growth solution” (priority 2012, dated 2017).

For the data set, the system named is human hair follicles. To be noted: ex vivo human hair follicles and cultured dermal papilla cells.

Consider “L-alanyl-L-histidyl-L-lysine-Cu^2+ [AHK-Cu]”, for which the “effect on human hair growth” value was “promotes the growth of human hair follicles”.
